Where a SMILES comes first, the peptide text is derived from it.
Assays:
[1] = test system: human myeloid leukemia cell line HL60; experiment: Differentiation of HL60 cells; format: cell-based
Description: FIG. 1 illustrates the effects of several peptides on the differentiation of the human myeloid leukemia cell line HL60.
(§1) Such inhibition is not the result of the killing of the cells. The data are graphed in the Figures.
(§2) DMSO, dimethylsulfoxide, is a chemical that induces HL60 cellular differentiation.
The level of differentiation of the HL60 cells after 5 or 7 days growth in the presence or absence of the various phage and peptides combinations described above are shown in FIG. 1. The high level of differentiation that has been achieved is notable from the graph in FIG. 1. The levels of differentiation in the presence of peptide exceed that produced by the presence of phage alone.

[2] = test system: human myeloid leukemia cell line HL60; experiment: Proliferation of HL60 cells: cell number after 7 days culture; format: cell-based; conditions: for No. Cells: HL60, after 7 days; for Percent relative to Controls: HL60 cell number after 7 days
Description: The number of cells after 7 days culture growth were counted in the presence or absence of the different molecules. Results are shown for the free G5 12-8B peptide alone (artificially synthesized), phage displaying G5 12-8B, the free A2 11-24 peptide, phage displaying the A2 11-24 peptide, a combination of the free G5 and A2 peptides, a combination of the free pure with phage displaying the peptides, and several concentrations of peptide.
as §1
The control number of cells per milliliter (2.6) is an average of results from dual controls (2.6×10^6).
as §2

[3] = test system: human myeloid leukemia cell line HL60; experiment: Viability of HL60 cells, trypan blue; format: cell-based; conditions: for Day 5 Viability: 5 day; for Day 7 Viability: 7 day; for Day 9 Viability: 9 day
Procedure: (§3) Studies were conducted of the effects of the free G5 12-8B (artificially synthesized), phage displaying G5 12-8B, the free A2 11-24 peptide, phage displaying the A2 11-24 peptide, a combination of the free G5 and A2 peptides, a combination of pure peptides plus phage displaying the peptides, and several concentrations of peptide.

[4] = test system: human myeloid leukemia cell line HL60; experiment: Differentiation of HL60 cells; format: cell-based; remark: listed apart in the source
[5] = Viability of HL60 cells, trypan blue; format: cell-based; conditions: human
Procedure: as §3

AML bone marrow cells = experiment: Methylcellulose culture of AML bone marrow cells with peptides: proliferation (colonies) and differentiation (morphology); format: cell-based, human; conditions: patient numbers
Procedure: The effect of various peptides were analyzed for their biological activity on cells from a patient with acute myelogenous leukemia. The AML cells were cultured into a semi-solid medium of methylcellulose in order to determine the cloning efficiency and the differentiation of the cells. The various peptides were introduced into the semi-solid cell culture at a concentration of 10^−4 M (0.1 mM) peptide. After 14 days continuous incubation of the cell cultures, the morphology of the cells were analyzed. The data are shown in FIG. 7 for the cultures and show the percentage of immature cells in the culture (solid black), the percentage of small myeloblasts (solid white), the percentage of young cells (dark gray), and the relative percentage of monocytes to […] (light gray). The data regarding the biological response of AML bone marrow cells in the presence of the various peptides is shown in the table below.

CLL cells = experiment: ELISA binding of phage displaying peptides to fixed cells: CLL cells; design: species or system human; conditions: in words
Procedure: (§4) Preliminary experiments were performed to identify specific peptides by using cells from patients diagnosed with CLL, CML, and AML. The screening was performed by incubating the cells with the phage-peptides from the library. This incubation allows interaction between the peptide and the cell. The binding step was followed by several washes to eliminate free phage. Phage bound on the cell surface was eluted.
(§5) After the last round of binding with one cell type, the eluted phage was plated on an agar plate with the appropriate selection antibiotics. Each individual colony, corresponding to one individual peptide sequence, was amplified in a 96-well plate. After purification, these peptides were tested for their ability to bind to the cells in a microtiter plate by ELISA.
(§6) Each peptide was dispensed in a 96-well plate, containing cells previously fixed. Each colony was tested in a triplicate assay with the appropriate controls. After incubation of cells with an individual clone, the wells were washed to eliminate free phage. The bound phages were detected by using a monoclonal anti-M13 antibody/horseradish peroxidase (HRP) conjugate. After addition of the HRP substrate, the intensity of the coloration was measured by spectrophotometry. The light absorbance values (optical density values, O.D. values) are proportional to the number of phage bound to the cells.
(§7) The binding to various cell types were examined to evaluate the cellular specificity of the phage clones. For example, the clones from phage eluted from CLL patient cells were assayed for their ability to bind cells from an AML patient. Cells from normal donors (non-leukemic) were also evaluated to ascertain leukemia cell specificity.
(§8) Peripheral blood and bone marrow samples were collected from patients after informed consent. The samples were collected in tubes containing sodium citrate. Mononuclear cells were isolated by Ficoll-Hypaque density gradient separation and collection of the cells at a density of 1.077 g/mL.
(§9) The wells of a 96-well plate were pre-treated with 100 μL of poly-L-lysine (0.01 mg/mL in phosphate-buffered saline, 120 mM NaCl, 2.7 mM KCl, 10 mM phosphate buffer, “PBS”) for 2-16 hours at room temperature. After draining the poly-L-lysine from the wells, the excess poly-L-lysine was removed from the wells by flicking. The cells were washed with PBS, then suspended in PBS and diluted to a final concentration of […]. The cell suspension (200 μL; 250,000 cells) were added to each well needed for the assay.
(§10) The plates were centrifuged at 500 g for about 5 minutes in a microplate carrying centrifuge when available. The cells were fixed to the wells through the addition of glutaraldehyde (100 μL of 0.5%) and incubating at room temperature for about an hour. The glutaraldehyde was removed and the cell-coated wells washed once with PBS. Alternatively, the cells were permitted to settle to the well bottoms for about 4 hours at 37° C., and the glutaraldehyde fixative was added after removing the PBS.
(§11) A glycine solution (200 μl of 0.1 M glycine in PBS) containing bovine serum albumin (BSA; 1%) was added to the wells and permitted to incubate for 30 minutes to block excess glutaraldehyde. The glycine was removed, and the cell-coated wells washed once with PBS. A sodium pyrophosphate solution (200 μL of 0.3 mg/mL NaPPi) was added to the wells and incubated for an hour at room temperature to neutralize lysine charges. The pyrophosphate solution was removed and the wells washed once with PBS. Multiwell microtiter plates with cell-coated wells were stored at 4° C. with fresh PBS solution in the coated wells.
(§12) The cells to be studied for binding were suspended in PBS and adsorbed onto to a poly-L-lysine pretreated 96-well plate and kept at 4° C. The PBS was removed from the wells and an H2O2 solution in PBS (6% H2O2 in 200 μL/well) was added. […]

CD34+ cells = experiment: ELISA binding of phage displaying peptides to fixed cells: CD34+ cells; design: species or system human; conditions: in words
Procedure: as §4, §5
as §6, with “Each colony was tested in a triplicate assay with the appropriate controls. After incubation of cells with an individual clone, the wells were washed to eliminate free phage.” left out
(§13) The binding to various cell types were examined to evaluate the cellular specificity of the phage clones. […] Cells from normal donors (non-leukemic) were also evaluated to ascertain leukemia cell specificity. […]

AML cells = experiment: ELISA binding of phage displaying peptides to fixed cells: AML cells; design: species or system human; conditions: in words
Procedure: as §4, §5, §6, §7, §8, §9, §10, §11, §12

CML cells = experiment: ELISA binding of phage displaying peptides to fixed cells: CML cells; design: species or system human; conditions: in words
Procedure: as §4, §5, §6, §7, §8, §9, §10, §11, §12

[6] = test system: human bone marrow AML cells; experiment: Effect of phage-peptides on differentiation, cell number and viability of freshly obtained AML patient bone marrow cells cultured seven days; format: cell-based; conditions: for Number of Cells / Percent Differentiation: phage-peptides; for Percent differentiated in Specimen 1 / Percent differentiated in Specimen 2: peptides in bacteriophage, AML cells cultured seven days in vitro
Description: The effect of various phage-peptides were studied on the differentiation of cells from two AML patients.

normal bone marrow cells = experiment: ELISA binding of phage displaying peptides to fixed cells: normal bone marrow; design: species or system human; conditions: in words
Procedure: as §4, §5
as §6, with “Each colony was tested in a triplicate assay with the appropriate controls. After incubation of cells with an individual clone, the wells were washed to eliminate free phage.” left out
as §13

cord blood cells = experiment: ELISA binding of phage displaying peptides to fixed cells: cord blood cells; design: species or system human; conditions: in words
Procedure: as §4, §5
as §6, with “Each colony was tested in a triplicate assay with the appropriate controls. After incubation of cells with an individual clone, the wells were washed to eliminate free phage.” left out
as §13

CC[C@H](C)[C@H](NC(=O)[C@@H](N)CS)C(=O)N[C@@H](CCC(=O)O)C(=O)N[C@@H](CCC(=O)O)C(=O)N[C@H](C(=O)N[C@@H](C)C(=O)N[C@@H](CCCNC(=N)N)C(=O)N[C@@H](CCCCN)C(=O)NCC(=O)N[C@@H](CS)C(=O)O)[C@@H](C)O [A2 11-24 peptide] (H-CIEETARKGC-OH; N-terminus and C-terminus assumed)
Day 5 % Diff. ([1]; free peptide at 10^−4 M): 18%
Day 5 % Diff., figure in parentheses ([1]; free peptide at 10^−4 M): 150%
Day 7 % Diff. ([1]; free peptide at 10^−4 M): 30%
Day 7 % Diff., figure in parentheses ([1]; free peptide at 10^−4 M): 188%
No. Cells ([2]; free peptide at 10^−4 M): 2.0 10^6 cell/mL
Percent relative to Controls ([2]; free peptide at 10^−4 M): 77%
Day 5 Viability [3]: 100%
Day 7 Viability [3]: 96%
Day 9 Viability [3]: 87%
Day 9 % Diff. ([4]; free peptide at 10^−4 M): 25%

C[S+](C)[O-] [DMSO, dimethylsulfoxide, reference compound]
Day 5 % Diff. ([1]; concentration not given): off scale
Day 7 % Diff. ([1]; concentration not given): off scale
No. Cells ([2]; concentration not given): 0.9 10^6 cell/mL
Percent relative to Controls ([2]; concentration not given): 30%
viability at 5 days [5]: 98%
viability at 7 days [5]: 97%
viability at 9 days [5]: 82%
Day 9 % Diff. ([4]; concentration not given): off scale

NCCCC[C@H](NC(=O)CNC(=O)[C@H](CO)NC(=O)[C@H](Cc1c[nH]c2ccccc12)NC(=O)[C@H](CCC(N)=O)NC(=O)[C@H](CCC(N)=O)NC(=O)[C@H](Cc1ccccc1)NC(=O)[C@H](CCC(=O)O)NC(=O)[C@@H](N)CS)C(=O)N[C@@H](CS)C(=O)O [G5 12-8B peptide] (H-CEFQQWSGKC-OH; N-terminus and C-terminus assumed)
Day 5 % Diff. ([1]; free peptide at 10^−4 M): 22%
Day 5 % Diff., figure in parentheses ([1]; free peptide at 10^−4 M): 183%
Day 7 % Diff. ([1]; free peptide at 10^−4 M): 31%
Day 7 % Diff., figure in parentheses ([1]; free peptide at 10^−4 M): 194%
No. Cells ([2]; free peptide at 10^−4 M): 1.2 10^6 cell/mL
Percent relative to Controls ([2]; free peptide at 10^−4 M): 48%
Day 5 Viability [3]: 98%
Day 7 Viability [3]: 96%
Day 9 Viability [3]: 90%
Day 9 % Diff. ([4]; free peptide at 10^−4 M): 22%

CIEETARKGC [A2 11-24]
Activation of Differentiation (AML bone marrow cells): 3
binding of phage displaying the peptide to CLL cells (CLL cells): not
binding of phage displaying the peptide to CD34+ cells (CD34+ cells): bind
binding of phage displaying the peptide to AML cells (AML cells): bind
binding of phage displaying the peptide to CML cells (CML cells): bind

EFQQWSGK [G5 12-8B phage]
Number of Cells ([6]; Patient 1): 1.11 106
Percent Differentiation ([6]; Patient 1): 27.9%
Number of Cells ([6]; Patient 2, listed as GS-12-8B): 0.31 106
Percent Differentiation ([6]; Patient 2, listed as GS-12-8B): 61%
Percent differentiated in Specimen 1 [6]: 28%
Percent differentiated in Specimen 2 [6]: 61%
Day 5 % Diff. ([1]; phage 75): 17%
Day 5 % Diff., figure in parentheses ([1]; phage 75): 142%
Day 7 % Diff. ([1]; phage 75): 46%
Day 7 % Diff., figure in parentheses ([1]; phage 75): 288%
No. Cells ([2]; phage 75): 3.8 10^6 cell/mL
Percent relative to Controls ([2]; phage 75): 140%
Day 9 % Diff. ([4]; phage 75): 46%

IEETARKG [A2 11-24 phage]
Number of Cells ([6]; Patient 1): 0.75 106
Percent Differentiation ([6]; Patient 1): 79.2%
Number of Cells ([6]; Patient 2): 0.33 106
Percent Differentiation ([6]; Patient 2): 49.5%
Percent differentiated in Specimen 1 [6]: 79%
Percent differentiated in Specimen 2 [6]: 50%
Day 5 % Diff. ([1]; phage 75): 18%
Day 5 % Diff., figure in parentheses ([1]; phage 75): 150%
Day 7 % Diff. ([1]; phage 75): 52%
Day 7 % Diff., figure in parentheses ([1]; phage 75): 325%
No. Cells ([2]; phage 75): 1.6 10^6 cell/mL
Percent relative to Controls ([2]; phage 75): 62%
Day 9 % Diff. ([4]; phage 75): 64%

KRGIHPES [B3 9-1-01 no Cys]
binding of phage displaying the peptide to normal bone marrow (normal bone marrow cells): bind
binding of phage displaying the peptide to AML cells (AML cells): not

VSEDIYDA [E11 12-8B]
binding of phage displaying the peptide to cord blood cells (cord blood cells): bind
binding of phage displaying the peptide to AML cells (AML cells): bind
binding of phage displaying the peptide to CML cells (CML cells): bind
